Data published in patent US10364277B2, “Diagnosis and treatment of autoimmune diseases” (NewSouth Innovations Pty Limited, priority 2013, dated 2019).
“Also recorded” adds a separate entry of the source. Marks after values point to notes of the source that are not given here. One block for each molecule: values may come before it. Ends that are not written are not given here.

Legend:
HLAB*2705 = HLAB*2705 (Homo sapiens, UniProt P01889, D138H/D201E/E176V/E204Q/G107R/H137Y/K202T/N104T/N87E/Q56L/Q94K/R106L/R155S/R180L/S101D/S121N/S48T/Y140D/Y33H/Y91C); test: REVEAL MHC-peptide binding assay; conditions: for % Positive Control: REVEAL binding score relative to positive control peptide, pass threshold ≥45%
[1] = tested on: T cells of patients with AS; conditions: known from Kuon et al. 1997; cited from earlier work
Lewis rats = test: Immunization of Lewis rats with peptide in CFA (uveitis/arthritis); assay type: in vivo, rat; design: histol Average / Arthritis Total: scale not given here; conditions: for Arthritis Total / Arthritis day 25 / incidence / histol Average: 50 μg peptide/animal; for clin uveitis: 6 Lewis rats, 50 μg peptide/animal s.c. in CFA; for incidence: eyes with histological findings / eyes scored; for animals immunised that developed arthritis: groups of 6 animals, not HLA-B27 transgenics; for histol Average: histological uveitis score of eyes
Description: Animals: Lewis rats, age 6 weeks,
Peptides were emulsified (sonification) in CFA (50:50, CFA:Peptid) supplemented with M Tuberculosis H37RA (BD, Heidelberg, Germany) to a final concentration of 2.5 mg/ml
Peptide is injected s.c. in both hindlegs, 50 μg peptide/200 μl emulsion, 100 μl/leg,
Group size: 6 animals, 3 groups
7 days post immunization animals were examined daily (eyes and feet)
Eyes were embedded in tissue tec and frozen at −80 degree.
8 μm cryo section were stained with hematoxilin and graded.

Rats = test: Induction of oral tolerance in rats; assay type: in vivo, rat; conditions: for affected joints / average score/animal / incidence: 4 rats
PBMC = test: Ex vivo IFN-γ EliSpot assay; conditions: for IFN-γ response to individual peptide compared to the controls: one HLA B27 subject of 2 (B27004, B27007), p<0.001
[2] = PBS-fed 3 x, immunized with 100 μg peptide
[3] = fed 200 μg peptide 3 x, immunized with 100 μg of the same peptide

- % Positive Control (HLAB*2705): 0.04%
Molecule: 8 (DRASFIKNL; Collagen peptide fragment) [Peptide 8]
- stimulation of T cells of patients with AS [1]: stimulate T cells of patients with AS

- % Positive Control (HLAB*2705): 0.02%
Molecule: 9 (SRHHAFCFR; Aggrecan peptide fragment) [Peptide 9]
- stimulation of T cells of patients with AS [1]: stimulate T cells of patients with AS

- % Positive Control (HLAB*2705): 1.06%
Molecule: 10 (ARGQPGVMG) [Peptide 10]

Molecule: ARKLLLDNL [Peptide P2]
- % Positive Control (HLAB*2705): 5.26%
- Arthritis Total (Lewis rats): 8
- clin uveitis (Lewis rats): 0
- Arthritis day 25 (Lewis rats): 8
- incidence (Lewis rats): 5/11*
- animals immunised that developed arthritis (Lewis rats): 5/6
- histol Average (Lewis rats): 0.181
- affected joints (Rats; [2]): 3
- average score/animal (Rats; [2]): 1.875
- incidence (Rats; [2]): 2/4
- average score/animal (Rats; [3]): 3.25
- incidence (Rats; [3]): 1/4
- histological score (Rats; left eye of rat 1-3, PBS-fed, imm. P2D6): 2-3

- % Positive Control (HLAB*2705): 0.24%
- binding relative to the positive control peptides (HLAB*2705; in vitro MHC-peptide binding assay, HLA-B2705): significant binding
Molecule: KRFNALQYL [human lumican residues 226-234]
- Arthritis Total (Lewis rats): 3
- clin uveitis (Lewis rats): 0
- Arthritis day 25 (Lewis rats): 0
- incidence (Lewis rats): 3/12
- histol Average (Lewis rats): 0.125

Molecule: KRLAETLAL [compound 1, KRLAETLAL]
- % Positive Control (HLAB*2705): 105.51%

Molecule: LQNNLIETI (Fragment of keratocan protein)
- IFN-γ response to individual peptide compared to the controls (PBMC): significant increase in response

Molecule: LQYLRLSHN
- IFN-γ response to individual peptide compared to the controls (PBMC): significant increase in response

Molecule: NRFSVAYML [Peptide P3]
- % Positive Control (HLAB*2705): 0.00%
- Arthritis Total (Lewis rats): 4
- clin uveitis (Lewis rats): 0
- Arthritis day 25 (Lewis rats): 2
- incidence (Lewis rats): 2/12
- histol Average (Lewis rats): 0.083
- affected joints (Rats; [2]): 10
- average score/animal (Rats; [2]): 2.75-3.00
- incidence (Rats; [2]): 3/4
- induction of oral tolerance (Rats; compared with P2): induces oral tolerance more effectively than P2
- affected joints (Rats; [3]): 0
- average score/animal (Rats; [3]): 0
- incidence (Rats; [3]): 0/4
- development of arthritis or uveitis (Rats; rats fed with P3 and immunized with P3): None of the rats fed with P3 and immunized with P3 developed arthritis or uveitis; also recorded: None of the animals who received P3 had evidence of arthritis or uveitis

Molecule: QLEDIRLDG (A second opticin protein fragment)
- IFN-γ response to individual peptide compared to the controls (PBMC): significant increase in response

B1: Lumican: whole recombinant human lumican (protein, UniProt P51884 19-338, looked up)
Lumican: QYYDYDFPLSIYGQSSPNCAPECNCPESYPSAMYCDELKLKSVPMVPPGIKYLYLRNNQIDHIDEKAFENVTDLQWLILDHNLLENSKIKGRVFSKLKQLKKLHINHNNLTESVGPLPKSLEDLQLTHNKITKLGSFEGLVNLTFIHLQHNRLKEDAVSAAFKGLKSLEYLDLSFNQIARLPSGLPVSLLTLYLDNNKISNIPDEYFKRFNALQYLRLSHNELADSGIPGNSFNVSSLVELDLSYNKLKNIPTVNENLENYYLEVNQLEKFDIKSFCKILGPLSYSKIKHLRLDGNRISETSLPPDMYECLRVANEVTLN
- animals immunised that developed arthritis (Lewis rats): all developed arthritis
- patients demonstrating increased IFN-γ production (PBMC; HLA B27 AU patients): 8 of 10
- Interferon gamma response, Patients (N = 10) (PBMC; number of HLA B27 AU patients responding, PBMC, 24 hours): 8
- Interferon gamma response, Controls (N-6) (PBMC; number of healthy controls responding, PBMC, 24 hours): 2
- IFN-γ response of HLA B27 AU patients vs average of healthy controls (PBMC; ten patients vs controls n=6, one way ANOVA, Bonferroni, lumican 2.5 μg/mL): significant difference
